The IC50 is the concentration that gives 50% inhibition. The clearance is a measure of how efficiently the substance is removed, as volume per time. Read a low clearance as a low capacity for elimination. As a reminder, the AUC(0-inf) is total exposure, with the tail of the curve extrapolated. High values mean more exposure, low ones less exposure. For orientation: half-life means the time needed for the level to fall by half in the phase considered. Read a low half-life as rapid decline. One may read the Cmax as the peak of the concentration-time curve.

Data on 14 compounds can be found in patent publication US20240383905A1, “FGFR INHIBITORS AND METHODS OF USE THEREOF” (3H PHARMACEUTICALS CO., LTD., priority 2021, published 2024).

In one data set the target is T1, FGFR2 (Homo sapiens, UniProt P21802).
T1 construct: purchased Carna 08-134
T1 sequence (P21802 22-821): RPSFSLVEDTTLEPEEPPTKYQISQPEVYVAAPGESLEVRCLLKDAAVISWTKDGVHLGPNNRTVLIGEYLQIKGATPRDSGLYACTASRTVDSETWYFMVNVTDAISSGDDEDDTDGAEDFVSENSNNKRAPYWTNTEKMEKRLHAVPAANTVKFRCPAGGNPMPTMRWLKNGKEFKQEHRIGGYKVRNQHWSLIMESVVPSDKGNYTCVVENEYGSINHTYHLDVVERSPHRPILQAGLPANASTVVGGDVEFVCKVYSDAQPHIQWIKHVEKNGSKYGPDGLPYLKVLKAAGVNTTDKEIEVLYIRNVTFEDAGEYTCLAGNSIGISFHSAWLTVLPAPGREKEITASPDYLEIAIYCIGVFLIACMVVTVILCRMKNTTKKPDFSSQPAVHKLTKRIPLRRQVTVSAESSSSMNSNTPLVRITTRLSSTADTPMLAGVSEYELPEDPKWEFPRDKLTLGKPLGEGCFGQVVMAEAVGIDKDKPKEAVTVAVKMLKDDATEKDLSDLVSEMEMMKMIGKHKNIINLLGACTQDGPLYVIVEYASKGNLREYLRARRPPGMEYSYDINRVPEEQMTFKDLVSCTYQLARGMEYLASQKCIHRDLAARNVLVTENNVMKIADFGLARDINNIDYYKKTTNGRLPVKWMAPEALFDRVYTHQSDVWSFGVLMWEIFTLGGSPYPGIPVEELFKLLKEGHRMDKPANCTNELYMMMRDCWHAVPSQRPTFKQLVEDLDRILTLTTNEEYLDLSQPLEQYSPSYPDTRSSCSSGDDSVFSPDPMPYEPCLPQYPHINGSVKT
The data set is described as follows: FGFR2 Biochemical Caliper Assay (KinEASE-TK kit). Conditions: 0.07 nM FGFR2; compound incubated with protein 10 min, reaction 45 min at RT; read-out: FGFR2 Cliper IC50.

The target of a further data set is T2, FGFR1 (Homo sapiens, UniProt P11362).
T2 construct: purchased Carna 08-133
T2 sequence (P11362 22-822): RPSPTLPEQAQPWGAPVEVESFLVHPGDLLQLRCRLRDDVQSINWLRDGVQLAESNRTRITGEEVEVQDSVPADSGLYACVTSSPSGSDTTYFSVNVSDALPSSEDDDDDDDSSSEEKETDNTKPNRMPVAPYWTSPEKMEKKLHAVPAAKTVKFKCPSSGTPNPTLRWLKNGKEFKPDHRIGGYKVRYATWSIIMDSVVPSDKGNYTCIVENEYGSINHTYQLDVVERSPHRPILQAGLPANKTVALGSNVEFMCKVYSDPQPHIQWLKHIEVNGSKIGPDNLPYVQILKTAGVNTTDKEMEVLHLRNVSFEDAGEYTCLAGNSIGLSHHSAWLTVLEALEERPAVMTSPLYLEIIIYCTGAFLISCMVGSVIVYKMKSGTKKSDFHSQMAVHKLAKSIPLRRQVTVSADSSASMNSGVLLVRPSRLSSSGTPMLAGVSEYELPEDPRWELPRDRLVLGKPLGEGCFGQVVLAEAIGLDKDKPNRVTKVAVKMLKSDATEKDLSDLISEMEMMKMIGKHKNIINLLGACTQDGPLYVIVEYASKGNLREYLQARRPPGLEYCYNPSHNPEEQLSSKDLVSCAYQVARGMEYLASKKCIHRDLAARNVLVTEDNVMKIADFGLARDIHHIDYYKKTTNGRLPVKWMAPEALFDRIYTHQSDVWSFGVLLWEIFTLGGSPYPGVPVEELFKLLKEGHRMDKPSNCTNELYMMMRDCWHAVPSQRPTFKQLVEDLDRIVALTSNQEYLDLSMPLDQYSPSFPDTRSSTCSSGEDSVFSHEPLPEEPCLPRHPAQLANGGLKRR
In words: FGFR1 Biochemical Caliper Assay (KinEASE-TK kit). The note with it: ratio FGFR1/FGFR2 of the biochemical assay. The method in brief:
(§1)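 KinEASE-TK HTRF readout: enzyme at 0.2 nM (FGFR1, FGFR3) preincubated 10 min at RT with 10-point 3-fold compound dilutions before TK-substrate/ATP start.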

In another data set the target is T3, FGFR3 (Homo sapiens, UniProt P22607).
T3 construct: purchased Carna 08-135
T3 sequence (P22607 23-806): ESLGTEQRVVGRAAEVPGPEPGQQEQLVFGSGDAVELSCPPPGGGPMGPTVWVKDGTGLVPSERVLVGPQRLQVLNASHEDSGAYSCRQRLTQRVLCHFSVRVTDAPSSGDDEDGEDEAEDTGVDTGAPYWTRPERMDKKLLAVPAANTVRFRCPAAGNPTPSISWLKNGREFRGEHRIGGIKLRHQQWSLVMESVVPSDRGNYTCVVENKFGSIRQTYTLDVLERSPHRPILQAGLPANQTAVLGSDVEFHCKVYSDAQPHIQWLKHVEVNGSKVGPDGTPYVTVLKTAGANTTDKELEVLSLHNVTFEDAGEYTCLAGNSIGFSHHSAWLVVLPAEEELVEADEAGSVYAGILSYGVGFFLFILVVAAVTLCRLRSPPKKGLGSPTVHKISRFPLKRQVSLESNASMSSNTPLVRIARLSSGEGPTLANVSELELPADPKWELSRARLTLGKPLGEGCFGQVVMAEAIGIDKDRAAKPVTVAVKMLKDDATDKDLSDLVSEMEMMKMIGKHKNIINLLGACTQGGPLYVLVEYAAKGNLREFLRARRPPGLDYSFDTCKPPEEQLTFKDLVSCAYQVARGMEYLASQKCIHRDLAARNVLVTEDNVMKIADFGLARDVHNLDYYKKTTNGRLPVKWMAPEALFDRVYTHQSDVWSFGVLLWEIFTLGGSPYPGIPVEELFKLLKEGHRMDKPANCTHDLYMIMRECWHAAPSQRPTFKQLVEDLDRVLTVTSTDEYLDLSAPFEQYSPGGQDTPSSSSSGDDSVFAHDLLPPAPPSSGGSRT
In words: FGFR3 Biochemical Caliper Assay (KinEASE-TK kit). Conditions: ratio FGFR3/FGFR2 of the biochemical assay. In a few lines: as §1

For a further data set, the system named is SNU16 cells. The data set is described as follows: SNU16 Cancer Cell Line Proliferation Assay (CellTiter-Glo). The format is cell-based. The note with it: Homo sapiens, SNU-16, 72 h. The method in brief:
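SNU16 cells at 5000/well exposed to 9-point 3-fold serial compound dilutions (DMSO control) for 72 h at 37 °C, 5% CO2. Viability read by luminescence; IC50 calculated from dose-response.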
(ATP-based viability assays read luminescence as a measure of living cells.)

The nature of data set [1]: Pharmacokinetics in SD Rat. The format is in vivo, Sprague-Dawley (SD) rat. The note with it: male SD rat, plasma. As for the experimental part:
Animal studies were done as approved protocols by the Institutional Animal Care and Use Committee at INVIVO Biotech Co., Ltd.
Animal information: Sprague-Dawley (SD) rat, SPF, 6-8 weeks, Male, weight 200-250 g, purchased from Beijing Vital River Lab (Beijing, People's Republic of China).
Formulation: Prepare 1.5 mg/ml and 0.6 mg/ml compound solution in […](20% HPβCD) for PO and IV respectively, dosing immediately after preparation.
Administration: PO and IV;

[2] abbreviates: Sprague-Dawley, PO 15 mg/kg (IV used for Clearance).
Setting [3] is: Sprague-Dawley, PO 15 mg/kg (IV used for Clearance), read-out: Cmax.
The mark [4] stands for this setting: PO 15 mg/kg (IV used for Clearance).

Read-outs that look alike come from different tables or passages of the source. Bounds are passed on as bounds.

As for `C=C(F)C(=O)Nc1ccc(-c2nn3ncnc(N)c3c2-c2ccc(C(=O)NC3(C(F)(F)F)CC3)c(OC)c2)cc1` [Compound 308], the IC50 on FGFR2 is > 10 nM. For the same compound, the “Selectivity FGFR1/FGFR2” value at FGFR1 is “C (Selectivity of FGFR1/FGFR2 less than 200 but greater than or equal to 100)”. Also, the “Selectivity FGFR3/FGFR2” value at FGFR3 is reported as “A (Selectivity of FGFR3/FGFR2 less than 150 but greater than or equal to 100)”. In the data set on SNU16 cells, the IC50 was ≤ 10 nM. This compound also came in with a clearance in data set [1] (Sprague-Dawley, IV 3 mg/kg) of 17 mL/min/kg. For the same compound, in data set [1] (setting [2]), the AUC(0-inf) was 3760 ng·h/mL and the half-life was 2.4 h. In addition, the Cmax in data set [1] (setting [3]) came out at 1180 ng/mL.
For the compound `C=C(F)C(=O)Nc1ccc(-c2nn3ncnc(N)c3c2-c2ccc(C(=O)NC34CC(C3)C4)c(OC)c2)cc1` [Compound 270, 4-(4-amino-6-(4-(2-fluoroacrylamido)phe-nyl)pyrazolo[5,1-f][1,2,4]triazin-5-yl)-N-(bicyclo[1.1.1]pentan-1-yl)-2-methoxybenzamide], the Cl in data set [1] (IV 3 mg/kg) came to 18 mL/min/kg. In addition, in data set [1] (setting [4]), the “AUC0-∞” value was determined as 3384 ng·h/mL, the Cmax is given as 978 ng/mL and the T1/2 turned out to be 2 h.
`C=C(F)C(=O)Nc1ccc(-c2[nH]c3c(C#N)cnc(N)c3c2-c2ccc(C(=O)NCC(F)(F)F)c(OC)c2)cc1` [Compound 302]: the clearance in data set [1] (Sprague-Dawley, IV 3 mg/kg) was 3.4 mL/min/kg. In data set [1] (setting [2]), this compound gave an AUC(0-inf) of 1510 ng·h/mL and a half-life of 2.7 h. Further, the Cmax in data set [1] (setting [3]) turned out to be 615 ng/mL.
`C=C(F)C(=O)Nc1ccc(-c2nn3ncnc(N)c3c2-c2ccc(C(=O)NC3CC(F)C3)c(OC)c2)cc1` (centres unmarked) [Compound 185, 4-(4-amino-6-(4-(2-fluoroacrylamido)phe-nyl)pyrazolo[5,1-f][1,2,4]triazin-5-yl)-N-(3-fluorocyclobutyl)-2-methoxybenzamide]: at FGFR2, the IC50 was > 10 nM. The “Selectivity FGFR1/FGFR2” value on FGFR1 was “A+ (Selectivity of FGFR1/FGFR2 greater or equal to 500)”. Further, the “Selectivity FGFR3/FGFR2” value on FGFR3 is “A+ (Selectivity of FGFR3/FGFR2 greater or equal to 150)”. Besides, the IC50 in the data set with SNU16 cells was ≤ 10 nM. In data set [1] (Sprague-Dawley, IV 3 mg/kg), this compound registered a clearance of 26 mL/min/kg. In addition, in data set [1] (setting [2]), the AUC(0-inf) was found to be 1550 ng·h/mL and the half-life is 3 h. The Cmax in data set [1] (setting [3]) was determined as 507 ng/mL.
On to `C=C(F)C(=O)Nc1ccc(-c2nn3ncnc(N)c3c2-c2ccc(C(=O)NC3CC3(F)F)c(OC)c2)cc1` (centres unmarked) [Compound 193, 4-(4-amino-6-(4-(2-fluoroacrylamido)phe-nyl)pyrazolo[5,1-f][1,2,4]triazin-5-yl)-N-(2,2-difluorocyclopropyl)-2-methoxybenzamide], for which the IC50 at FGFR2 was 5 to 10 nM. For the same compound, the “Selectivity FGFR1/FGFR2” value on FGFR1 is on record as “A+ (Selectivity of FGFR1/FGFR2 greater or equal to 500)”. For the same compound, at FGFR3, the “Selectivity FGFR3/FGFR2” value is given as “A+ (Selectivity of FGFR3/FGFR2 greater or equal to 150)”. The IC50 with SNU16 cells was ≤ 10 nM. In data set [1] (Sprague-Dawley, IV 3 mg/kg), this compound gave a clearance of 8.4 mL/min/kg. In data set [1] (setting [2]), this compound gave an AUC(0-inf) of 4570 ng·h/mL and a half-life of 3.6 h. Moreover, the Cmax in data set [1] (setting [3]) is 1390 ng/mL.
Consider `C=C(F)C(=O)Nc1ccc(-c2nn3ncnc(N)c3c2-c2ccc(C(=O)NCC3(C(F)(F)F)CC3)c(OC)c2)cc1` [Compound 309], for which the IC50 at FGFR2 fell in the range of 5 to 10 nM. Further, the “Selectivity FGFR1/FGFR2” value at FGFR1 is recorded as “A+ (Selectivity of FGFR1/FGFR2 greater or equal to 500)”. Besides, the “Selectivity FGFR3/FGFR2” value on FGFR3 is listed as “A+ (Selectivity of FGFR3/FGFR2 greater or equal to 150)”. For the same compound, the IC50 in the data set on SNU16 cells is ≤ 10 nM. In addition, the clearance in data set [1] (Sprague-Dawley, IV 3 mg/kg) came out at 11 mL/min/kg. In data set [1] (setting [2]), this compound gave an AUC(0-inf) of 3100 ng·h/mL and a half-life of 2.6 h. In addition, the Cmax in data set [1] (setting [3]) came out at 957 ng/mL.
As to `C=C(F)C(=O)Nc1ccc(-c2nn3ncnc(N)c3c2-c2ccc(C(=O)NCCC(F)(F)F)c(OC)c2)cc1` [Compound 310], the clearance in data set [1] (Sprague-Dawley, IV 3 mg/kg) stood at 16 mL/min/kg. In data set [1] (setting [2]), this compound gave an AUC(0-inf) of 2970 ng·h/mL and a half-life of 1.1 h. Further, in data set [1] (setting [3]), the Cmax stood at 1190 ng/mL.
For `C=C(F)C(=O)Nc1ccc(-c2nn3ncnc(N)c3c2-c2ccc(C(=O)NC3CC(F)(F)C3)c(OC)c2)cc1` [Compound 99] the same measures were 18 mL/min/kg, 3080 ng·h/mL, 1.4 h and 2360 ng/mL.
For the compound `C=C(F)C(=O)Nc1ccc(-c2c(-c3ccc(C(=O)NCC(F)(F)F)c(OC)c3)c3c(N)ncc(C#N)c3n2C)cc1` [Compound 96, 4-(4-amino-7-cyano-2-(4-(2-fluoroacrylamido)phenyl)-1-methyl-1H-pyrrolo[3,2-c]pyridine-3-yl)-2-methoxy-N-(2,2,2-trifluoroethyl)benzamide], the IC50 at FGFR2 was < 5 nM. In addition, the “Selectivity FGFR1/FGFR2” value on FGFR1 is recorded as “A+ (Selectivity of FGFR1/FGFR2 greater or equal to 500)”. Also, the “Selectivity FGFR3/FGFR2” value at FGFR3 is on record as “A+ (Selectivity of FGFR3/FGFR2 greater or equal to 150)”. In addition, the IC50 in the data set with SNU16 cells was ≤ 10 nM. Moreover, the clearance in data set [1] (Sprague-Dawley, IV 3 mg/kg) was 3.1 mL/min/kg. In data set [1] (setting [2]), this compound gave an AUC(0-inf) of 2700 ng·h/mL and a half-life of 6 h. In data set [1] (setting [3]), the Cmax amounted to 621 ng/mL.
As for `C=CC(=O)Nc1ccc(-c2c(-c3ccc(C(=O)NCC(F)(F)F)c(OC)c3)c3c(N)ncc(C#N)c3n2C)cc1` [Compound 28, 4-(2-(4-acrylamidophenyl)-4-amino-7-cyano-1-methyl-1H-pyrrolo[3,2-c]pyridin-3-yl)-2-methoxy-N-(2,2,2-trifluoroethyl)benzamide], on FGFR2, the IC50 was < 5 nM. On FGFR1, the “Selectivity FGFR1/FGFR2” value was “A (Selectivity of FGFR1/FGFR2 less than 500 but greater than or equal to 300)”. Further, on FGFR3, the “Selectivity FGFR3/FGFR2” value is “B (Selectivity of FGFR3/FGFR2 less than 100 but greater than or equal to 25)”. In addition, the IC50 with SNU16 cells was ≤ 10 nM. Further, in data set [1] (Sprague-Dawley, IV 3 mg/kg), the clearance is 19 mL/min/kg. Also, in data set [1] (setting [2]), the AUC(0-inf) came to 1240 ng·h/mL and the half-life was 0.98 h. The Cmax in data set [1] (setting [3]) stood at 509 ng/mL.
Consider `C=C(F)C(=O)Nc1ccc(-c2nn3ncnc(N)c3c2-c2ccc(C(=O)NC34CC(F)(C3)C4)c(OC)c2)cc1` [Compound 330], for which the IC50 at FGFR2 was > 10 nM. The “Selectivity FGFR1/FGFR2” value on FGFR1 is listed as “A+ (Selectivity of FGFR1/FGFR2 greater or equal to 500)”. Further, on FGFR3, the “Selectivity FGFR3/FGFR2” value is “A+ (Selectivity of FGFR3/FGFR2 greater or equal to 150)”. The half-inhibitory concentration (IC50) with SNU16 cells was ≤ 10 nM. In data set [1] (Sprague-Dawley, IV 3 mg/kg), this compound came in with a clearance of 6.1 mL/min/kg. In data set [1] (setting [2]), this compound gave an AUC(0-inf) of 1820 ng·h/mL and a half-life of 2.4 h. For the same compound, the Cmax in data set [1] (setting [3]) was determined as 509 ng/mL.
As for `C=C(C)C(=O)Nc1ccc(-c2c(-c3ccc(Oc4nccc(C)n4)c(F)c3)c3c(N)ncnc3n2C)cc1` [Compound 0, N-(4-(4-amino-5-(3-fluoro-4-((4-methylpyrimidin-2-yl)oxy)phenyl)-7-methyl-7H-pyrrolo[2,3-d]pyrimidin-6-yl)phenyl)methacrylamide, reference compound], the IC50 in the data set on SNU16 cells was ≤ 10 nM. The compound further returned a clearance in data set [1] (Sprague-Dawley, IV 3 mg/kg) of 49 mL/min/kg. Also, in data set [1] (setting [2]), the AUC(0-inf) was found to be 614 ng·h/mL and the half-life was 1.5 h. In addition, the Cmax in data set [1] (setting [3]) amounted to 244 ng/mL.
In data set [1] (Sprague-Dawley, IV 3 mg/kg), `C=C(F)C(=O)Nc1ccc(-c2nn3ncnc(N)c3c2-c2ccc(C(=O)NCC(F)(F)F)c(OC)c2)cc1` [Compound 71, 4-(4-amino-6-(4-(2-fluoroacrylamido)phenyl)pyrazolo[5,1-f][1,2,4]triazin-5-yl)-2-methoxy-N-(2,2,2-trifluoroethyl)benzamide] displayed a clearance of 18 mL/min/kg. In data set [1] (setting [2]), this compound showed an AUC(0-inf) of 3230 ng·h/mL and a half-life of 1.8 h. Moreover, the Cmax in data set [1] (setting [3]) stood at 1300 ng/mL.
Regarding `C=C(F)C(=O)Nc1ccc(-c2[nH]c3c(C#N)cnc(N)c3c2-c2ccc(C(=O)NC3CC3)c(OC)c2)cc1` [Compound 235, 4-(4-amino-7-cyano-2-(4-(2-fluoroacrylamido)phe-nyl)-1H-pyrrolo[3,2-c]pyridin-3-yl)-N-cyclopropyl-2-methoxybenzamide], the IC50 at FGFR2 was < 5 nM. The “Selectivity FGFR1/FGFR2” value at FGFR1 is given as “A+ (Selectivity of FGFR1/FGFR2 greater or equal to 500)”. Also, the “Selectivity FGFR3/FGFR2” value on FGFR3 was “A+ (Selectivity of FGFR3/FGFR2 greater or equal to 150)”. Besides, the IC50 in the data set with SNU16 cells was ≤ 10 nM. Moreover, in data set [1] (Sprague-Dawley, IV 3 mg/kg), the clearance is 5.4 mL/min/kg. In data set [1] (setting [2]), this compound showed an AUC(0-inf) of 2070 ng·h/mL and a half-life of 1.3 h. Moreover, the Cmax in data set [1] (setting [3]) turned out to be 442 ng/mL.
